Measurements taken from ChEMBL document CHEMBL1141905, “3,4-disubstituted azetidinones as selective inhibitors of the cysteine protease cathepsin K. Exploring P3 elements for potency and selectivity” (Bioorg Med Chem Lett, 2005).

Columns and labels:
[1] = biological target: Cathepsin B (Homo sapiens) (UniProt P07858); assay: Apparent inhibitory constant against human cathepsin B
[2] = biological target: Cathepsin S (Homo sapiens) (UniProt P25774); assay: Apparent inhibitory constant against human cathepsin S
[3] = biological target: T1, Cathepsin K (Oryctolagus cuniculus) (UniProt P43236); assay: Apparent inhibitory constant against rabbit cathepsin K
T1 sequence (whole entry): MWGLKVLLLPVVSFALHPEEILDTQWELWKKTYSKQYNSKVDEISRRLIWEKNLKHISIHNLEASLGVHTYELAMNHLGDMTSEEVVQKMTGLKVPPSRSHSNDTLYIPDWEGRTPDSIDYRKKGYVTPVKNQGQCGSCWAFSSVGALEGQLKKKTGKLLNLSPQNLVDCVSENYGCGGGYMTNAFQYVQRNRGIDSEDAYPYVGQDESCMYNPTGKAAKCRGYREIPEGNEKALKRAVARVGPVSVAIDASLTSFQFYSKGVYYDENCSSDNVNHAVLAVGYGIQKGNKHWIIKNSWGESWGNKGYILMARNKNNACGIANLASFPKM

[4] = biological target: Procathepsin L (Homo sapiens) (UniProt P07711);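 further: apparent inhibition constant, determined on the human enzyme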
[5] = Beta half life period; format: ADME
[6] = Alpha half life period; format: ADME
[7] = Clearance following intravenous administration evaluated as high; format: ADME, organism-based; conditions: in vivo
[8] = Mean residence time by intravenous administration; format: ADME, organism-based; conditions: in vivo
[9] = Volume of distribution following intravenous administration evaluated as moderate; format: ADME, organism-based; conditions: in vivo

Chain of Procathepsin L (Homo sapiens) (P07711 114-333 limits assumed): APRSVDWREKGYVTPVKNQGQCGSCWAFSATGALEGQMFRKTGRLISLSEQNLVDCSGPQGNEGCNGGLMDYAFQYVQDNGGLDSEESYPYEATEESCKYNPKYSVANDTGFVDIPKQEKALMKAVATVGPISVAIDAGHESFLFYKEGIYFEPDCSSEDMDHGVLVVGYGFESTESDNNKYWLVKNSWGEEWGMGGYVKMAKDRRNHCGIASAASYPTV
Chain of Cathepsin S (Homo sapiens) (P25774 115-331 limits assumed): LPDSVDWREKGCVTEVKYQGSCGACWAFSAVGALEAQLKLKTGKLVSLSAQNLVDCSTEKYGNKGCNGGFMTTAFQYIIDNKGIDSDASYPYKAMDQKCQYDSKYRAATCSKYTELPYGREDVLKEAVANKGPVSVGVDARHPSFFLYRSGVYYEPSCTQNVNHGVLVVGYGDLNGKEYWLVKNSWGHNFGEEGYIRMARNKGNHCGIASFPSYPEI

Ki'' [1] [µM] | Ki'' [2] [µM] | Ki'' [3] [µM] | Ki'' [4] [µM] | half-life [5] [min] | half-life [6] [min] | clearance [7] [mL/min/kg] | MRT [8] [min] | Vd [9] [L/kg] | SMILES
25 | 10 | 0.018 | 0.089 | – | – | – | – | – | CN(C)c1nc(-c2ccc(C(=O)NC3(C(=O)N[C@@H]4C(=O)N[C@H]4Oc4ccccc4)CCCCC3)cc2)cs1
0.49 | 8.8 | 0.0011 | 1.4 | – | – | – | – | – | CC(=O)O[C@@H]1NC(=O)[C@H]1NC(=O)C1(NC(=O)c2ccc(N3CCN(C)CC3)cc2)CCCCC1
6 | 140 | 0.00026 | 0.31 | – | – | – | – | – | CN1CCN(Nc2nc(-c3ccc(C(=O)NC4(C(=O)N[C@@H]5C(=O)N[C@H]5Oc5ccccc5)CCCCC4)cc3)cs2)CC1
4.3 | 0.95 | 0.057 | 6.8 | – | – | – | – | – | CC(=O)O[C@@H]1NC(=O)[C@H]1NC(=O)C1(NC(=O)OCc2ccccc2)CCCCC1
1.4 | 7.7 | 0.0026 | 0.39 | – | – | – | – | – | CC(=O)O[C@@H]1NC(=O)[C@H]1NC(=O)C1(NC(=O)c2ccc(-c3csc(N(C)C)n3)cc2)CCCCC1
5.2 | 150 | 0.0082 | 0.0082 | – | – | – | – | – | CN1CCN(Nc2nc(-c3ccc(C(=O)NC4(C(=O)N[C@@H]5C(=O)N[C@@H]5Oc5ccccc5)CCCCC4)cc3)cs2)CC1
1.2 | 3.5 | 0.012 | 6.4 | – | – | – | – | – | CSc1ccc(C(=O)NC2(C(=O)N[C@@H]3C(=O)N[C@H]3OC(C)=O)CCCCC2)cc1
0.091 | 8.8 | 0.00025 | 2.1 | – | – | – | – | – | CC(=O)O[C@@H]1NC(=O)[C@H]1NC(=O)C1(NC(=O)c2ccc(-c3csc(NN4CCN(C)CC4)n3)cc2)CCCCC1
– | – | – | – | 21 | 2 | 92 | 17 | 1.6 | CN1CCN(c2nc(-c3ccc(C(=O)NC4(C(=O)N[C@@H]5C(=O)N[C@@H]5Oc5ccccc5)CCCCC4)cc3)cs2)CC1
0.98 | 14 | 0.005 | 19 | – | – | – | – | – | CC(=O)O[C@@H]1NC(=O)[C@H]1NC(=O)C1(NC(=O)c2ccc(N3CCOCC3)cc2)CCCCC1
2.1 | 3.4 | 0.092 | 8.2 | – | – | – | – | – | CC(=O)O[C@@H]1NC(=O)[C@H]1NC(=O)C1(NC(=O)c2ccc(Cl)cc2)CCCCC1
1.7 | 12 | 0.0075 | 11 | – | – | – | – | – | CC(=O)O[C@@H]1NC(=O)[C@H]1NC(=O)C1(NC(=O)c2ccc(-c3csc(CN4CCOCC4)n3)cc2)CCCCC1
0.53 | 2.8 | 0.0031 | 2.1 | – | – | – | – | – | CC(=O)O[C@@H]1NC(=O)[C@H]1NC(=O)C1(NC(=O)c2ccc(N(C)C)cc2)CCCCC1
0.94 | 8.5 | 0.0011 | 3.3 | – | – | – | – | – | CC(=O)O[C@@H]1NC(=O)[C@H]1NC(=O)C1(NC(=O)c2ccc(-c3csc(N4CCN(C)CC4)n3)cc2)CCCCC1
